According to PubChem BioAssay (NCI):
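Dose response: 5 concentrations. Exposure: 48 h. Format: 96-well plates. Endpoint: linear interpolation; highest concentration if not reached. TGI marks complete inhibition of growth.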

What was measured:
Assay in all cases: NCI anticancer screen, dose series, 48 h
U251 CNS = system: U251 CNS
SF-268 CNS = system: SF-268 CNS
HCC-2998 colon = system: HCC-2998 colon
EKVX NSCLC = system: EKVX NSCLC
NCI-H522 lung = system: NCI-H522 lung
A498 renal = system: A498 renal
NCI/ADR-RES ovarian = system: NCI/ADR-RES ovarian
UACC-62 melanoma = system: UACC-62 melanoma
HOP-62 NSCLC = system: HOP-62 NSCLC
LOX IMVI melanoma = system: LOX IMVI melanoma
CCRF-CEM leukemia = system: CCRF-CEM leukemia
OVCAR-3 ovarian = system: OVCAR-3 ovarian
HS 578T breast = system: HS 578T breast
OVCAR-8 ovarian = system: OVCAR-8 ovarian
MCF7 breast = system: MCF7 breast
SK-MEL-2 melanoma = system: SK-MEL-2 melanoma
ACHN renal = system: ACHN renal
COLO 205 colon = system: COLO 205 colon
SF-539 CNS = system: SF-539 CNS
DU-145 prostate = system: DU-145 prostate
UO-31 renal = system: UO-31 renal
HL-60(TB) leukemia = system: HL-60(TB) leukemia
TK-10 renal = system: TK-10 renal
MDA-MB-231 breast = system: MDA-MB-231 breast
SK-MEL-28 melanoma = system: SK-MEL-28 melanoma
NCI-H460 lung = system: NCI-H460 lung
NCI-H226 lung = system: NCI-H226 lung
MALME-3M melanoma = system: MALME-3M melanoma
CAKI-1 renal = system: CAKI-1 renal
A549 NSCLC = system: A549 NSCLC
SNB-75 CNS = system: SNB-75 CNS
T-47D breast = system: T-47D breast
M14 melanoma = system: M14 melanoma
MDA-N = system: MDA-N
K-562 leukemia = system: K-562 leukemia
PC-3 prostate = system: PC-3 prostate
IGROV1 ovarian = system: IGROV1 ovarian
RPMI-8226 leukemia = system: RPMI-8226 leukemia
RXF 393 renal = system: RXF 393 renal
OVCAR-5 ovarian = system: OVCAR-5 ovarian
SR leukemia = system: SR leukemia
SW-620 colon = system: SW-620 colon
BT-549 breast = system: BT-549 breast
SF-295 CNS = system: SF-295 CNS
HT29 colon = system: HT29 colon
SK-OV-3 ovarian = system: SK-OV-3 ovarian
HCT-15 colon = system: HCT-15 colon
SN12C renal = system: SN12C renal
SNB-19 CNS = system: SNB-19 CNS
HOP-92 NSCLC = system: HOP-92 NSCLC
MDA-MB-435 = system: MDA-MB-435
KM12 colon = system: KM12 colon
HCT-116 colon = system: HCT-116 colon
SK-MEL-5 melanoma = system: SK-MEL-5 melanoma
786-0 renal = system: 786-0 renal
MOLT-4 leukemia = system: MOLT-4 leukemia
NCI-H23 lung = system: NCI-H23 lung
UACC-257 melanoma = system: UACC-257 melanoma
OVCAR-4 ovarian = system: OVCAR-4 ovarian

`CCOC(=O)NC(C(F)(F)F)(C(F)(F)F)P(=O)(OCC(C)C)OCC(C)C` showed a TGI (U251 CNS) of over 100 µM, a TGI (SF-268 CNS) of 57.3 µM and a TGI (HCC-2998 colon) of over 100 µM. For the same compound, the TGI (EKVX NSCLC) was 74.6 µM, the TGI (NCI-H522 lung) was 11.6 µM and the TGI (A498 renal) was over 100 µM. For the same compound, the TGI (NCI/ADR-RES ovarian) was 47 µM, the TGI (UACC-62 melanoma) was 29.4 µM and the TGI (HOP-62 NSCLC) was over 100 µM. The TGI (LOX IMVI melanoma) was 20.6 µM, the TGI (CCRF-CEM leukemia) was over 100 µM and the TGI (OVCAR-3 ovarian) was 64 µM. For the same compound, the TGI (HS 578T breast) was 56.5 µM, the TGI (OVCAR-8 ovarian) was 31.4 µM and the TGI (MCF7 breast) was 21.1 µM. It also gave a TGI (SK-MEL-2 melanoma) of 43 µM, a TGI (ACHN renal) of 52.8 µM and a TGI (COLO 205 colon) of 31 µM. It also gave a TGI (SF-539 CNS) of 48.8 µM, a TGI (DU-145 prostate) of over 100 µM and a TGI (UO-31 renal) of 30.3 µM. It also gave a TGI (HL-60(TB) leukemia) of 22.4 µM, a TGI (TK-10 renal) of 65.8 µM and a TGI (MDA-MB-231 breast) of 39 µM. The TGI (SK-MEL-28 melanoma) was 54.2 µM, the TGI (NCI-H460 lung) was over 100 µM and the TGI (NCI-H226 lung) was 32.6 µM. For the same compound, the TGI (MALME-3M melanoma) was 60.7 µM, the TGI (CAKI-1 renal) was over 100 µM and the TGI (A549 NSCLC) was over 100 µM. It also gave a TGI (SNB-75 CNS) of 97.1 µM, a TGI (T-47D breast) of over 100 µM and a TGI (M14 melanoma) of 26.1 µM. It also gave a TGI (MDA-N) of 27.1 µM, a TGI (K-562 leukemia) of over 100 µM and a TGI (PC-3 prostate) of over 100 µM. The TGI (IGROV1 ovarian) was 51.5 µM, the TGI (RPMI-8226 leukemia) was over 100 µM and the TGI (RXF 393 renal) was 24.5 µM. For the same compound, the TGI (OVCAR-5 ovarian) was 58.7 µM, the TGI (SR leukemia) was over 100 µM and the TGI (SW-620 colon) was 17.2 µM. For the same compound, the TGI (BT-549 breast) was 29 µM, the TGI (SF-295 CNS) was over 100 µM and the TGI (HT29 colon) was 33.8 µM. For the same compound, the TGI (SK-OV-3 ovarian) was 66.9 µM, the TGI (HCT-15 colon) was 17.1 µM and the TGI (SN12C renal) was 49 µM. It also gave a TGI (SNB-19 CNS) of over 100 µM, a TGI (HOP-92 NSCLC) of 36.7 µM and a TGI (MDA-MB-435) of over 100 µM. It also gave a TGI (KM12 colon) of over 100 µM, a TGI (HCT-116 colon) of 16.6 µM and a TGI (SK-MEL-5 melanoma) of 24.9 µM.
Compound `C=C[C@]1(C)C[C@@H](OC(=O)CO)[C@@]2(C)[C@H](C)CC[C@]3(CCC(=O)[C@H]32)[C@@H](C)[C@@H]1O` has a TGI (786-0 renal) of over 100 µM, a TGI (U251 CNS) of over 100 µM and a TGI (MOLT-4 leukemia) of over 75.5 µM. The TGI (NCI-H23 lung) was over 100 µM, the TGI (SF-268 CNS) was over 100 µM and the TGI (HCC-2998 colon) was over 100 µM. It also gave a TGI (EKVX NSCLC) of over 100 µM, a TGI (NCI-H522 lung) of over 100 µM and a TGI (A498 renal) of over 78.2 µM. The TGI (NCI/ADR-RES ovarian) was over 100 µM, the TGI (UACC-62 melanoma) was over 50.3 µM and the TGI (HOP-62 NSCLC) was over 100 µM. For the same compound, the TGI (LOX IMVI melanoma) was over 31.6 µM, the TGI (OVCAR-3 ovarian) was over 100 µM and the TGI (HS 578T breast) was 97 µM. The TGI (OVCAR-8 ovarian) was over 100 µM, the TGI (UACC-257 melanoma) was over 100 µM and the TGI (MCF7 breast) was over 100 µM. The TGI (SK-MEL-2 melanoma) was over 100 µM, the TGI (ACHN renal) was over 100 µM and the TGI (COLO 205 colon) was over 100 µM. For the same compound, the TGI (SF-539 CNS) was over 100 µM, the TGI (DU-145 prostate) was over 100 µM and the TGI (UO-31 renal) was over 100 µM. It also gave a TGI (HL-60(TB) leukemia) of over 100 µM, a TGI (TK-10 renal) of over 100 µM and a TGI (MDA-MB-231 breast) of over 100 µM. For the same compound, the TGI (SK-MEL-28 melanoma) was over 100 µM, the TGI (NCI-H460 lung) was over 100 µM and the TGI (NCI-H226 lung) was over 100 µM. For the same compound, the TGI (MALME-3M melanoma) was over 100 µM, the TGI (CAKI-1 renal) was over 100 µM and the TGI (A549 NSCLC) was over 100 µM. It also gave a TGI (SNB-75 CNS) of over 100 µM, a TGI (T-47D breast) of over 100 µM and a TGI (M14 melanoma) of over 100 µM. For the same compound, the TGI (MDA-N) was over 100 µM, the TGI (K-562 leukemia) was over 75.1 µM and the TGI (PC-3 prostate) was over 100 µM. For the same compound, the TGI (IGROV1 ovarian) was over 100 µM, the TGI (RPMI-8226 leukemia) was over 100 µM and the TGI (RXF 393 renal) was over 100 µM. For the same compound, the TGI (OVCAR-5 ovarian) was over 100 µM, the TGI (SR leukemia) was over 74.2 µM and the TGI (SW-620 colon) was over 100 µM. It also gave a TGI (BT-549 breast) of over 100 µM, a TGI (SF-295 CNS) of over 100 µM and a TGI (HT29 colon) of over 100 µM. For the same compound, the TGI (SK-OV-3 ovarian) was over 100 µM, the TGI (HCT-15 colon) was over 100 µM and the TGI (SN12C renal) was over 100 µM. The TGI (SNB-19 CNS) was over 100 µM, the TGI (HOP-92 NSCLC) was over 100 µM and the TGI (MDA-MB-435) was over 100 µM. The TGI (KM12 colon) was over 100 µM, the TGI (OVCAR-4 ovarian) was over 100 µM and the TGI (HCT-116 colon) was over 100 µM. For the same compound, the TGI (SK-MEL-5 melanoma) was over 100 µM.
Work on `Cc1c2cccc(Sc3ccccc3)c2c2c3c(cccc13)[S+](c1ccccc1)C2` (stereo not given) yielded a TGI (786-0 renal) of 13.9 µM, a TGI (U251 CNS) of 9.41 µM and a TGI (MOLT-4 leukemia) of 4.55 µM. The TGI (NCI-H23 lung) was 9.82 µM, the TGI (SF-268 CNS) was 11.8 µM and the TGI (HCC-2998 colon) was 4.49 µM. It also gave a TGI (EKVX NSCLC) of 19.5 µM, a TGI (NCI-H522 lung) of 4.51 µM and a TGI (A498 renal) of 8.32 µM. For the same compound, the TGI (NCI/ADR-RES ovarian) was over 100 µM, the TGI (UACC-62 melanoma) was 3.67 µM and the TGI (HOP-62 NSCLC) was 7.35 µM. For the same compound, the TGI (LOX IMVI melanoma) was 3.52 µM, the TGI (OVCAR-3 ovarian) was 6.01 µM and the TGI (HS 578T breast) was 13.9 µM. The TGI (OVCAR-8 ovarian) was 12.4 µM, the TGI (UACC-257 melanoma) was 3.57 µM and the TGI (MCF7 breast) was 8.93 µM. It also gave a TGI (SK-MEL-2 melanoma) of 3.71 µM, a TGI (ACHN renal) of 12.7 µM and a TGI (COLO 205 colon) of 2.46 µM. For the same compound, the TGI (SF-539 CNS) was 7.91 µM, the TGI (DU-145 prostate) was 15.3 µM and the TGI (UO-31 renal) was 8.28 µM. It also gave a TGI (HL-60(TB) leukemia) of 2.82 µM, a TGI (TK-10 renal) of 9.55 µM and a TGI (MDA-MB-231 breast) of 5.68 µM. For the same compound, the TGI (SK-MEL-28 melanoma) was 6.84 µM, the TGI (NCI-H460 lung) was 4.1 µM and the TGI (NCI-H226 lung) was 7.54 µM. For the same compound, the TGI (MALME-3M melanoma) was 4.67 µM, the TGI (CAKI-1 renal) was 11.4 µM and the TGI (A549 NSCLC) was 14.7 µM. It also gave a TGI (SNB-75 CNS) of 8.14 µM, a TGI (T-47D breast) of 8.24 µM and a TGI (M14 melanoma) of 6.78 µM. It also gave a TGI (MDA-N) of 13.8 µM, a TGI (K-562 leukemia) of 11.2 µM and a TGI (PC-3 prostate) of 5.71 µM. For the same compound, the TGI (IGROV1 ovarian) was 9.12 µM, the TGI (RPMI-8226 leukemia) was 2.85 µM and the TGI (RXF 393 renal) was 14.9 µM. The TGI (OVCAR-5 ovarian) was 12.1 µM, the TGI (SR leukemia) was 4.91 µM and the TGI (SW-620 colon) was 16.7 µM. It also gave a TGI (BT-549 breast) of 9.87 µM, a TGI (SF-295 CNS) of 6.33 µM and a TGI (HT29 colon) of 7.38 µM. The TGI (SK-OV-3 ovarian) was 6.58 µM, the TGI (HCT-15 colon) was 27.8 µM and the TGI (SN12C renal) was 11.5 µM. It also gave a TGI (SNB-19 CNS) of 11.2 µM, a TGI (HOP-92 NSCLC) of 6.6 µM and a TGI (MDA-MB-435) of 5.24 µM. For the same compound, the TGI (KM12 colon) was 2.85 µM, the TGI (OVCAR-4 ovarian) was 11.7 µM and the TGI (HCT-116 colon) was 9.59 µM. The TGI (SK-MEL-5 melanoma) was 2.1 µM.
